Source: patent US20100130725A1, “METHODS FOR CHARACTERIZING MOLECULES” (priority 2008, published 2010)
Where “and” joins values, the source holds several entries; their conditions need not be identical. Identical values can stand only once. Like-named read-outs stand apart in the source and are kept apart here. Ends that are not written are not given here.

Assays:
Format in all cases: cell-based, human
[1] = system: A549 cells; assay: Epic RWG biosensor DMR assay, agonist mode (primary profile), A549 cells; conditions: for DMR signal triggered by the ligand (primary profile), second ligand panel: FIG. 8: 40 μM pinacidil, 250 μg/ml poly(I:C), 8 μM PMA, 16 μM forskolin
Method: All cell lines were obtained from American Type Cell Culture (Manassas, Va.). The cell culture medium was as follows: Dulbecco's modified Eagle's medium (DMEM) supplemented with 10% fetal bovine serum (FBS), 4.5 g/liter glucose, 2 mM glutamine, and antibiotics for human epidermoid carcinoma A431 and human lung carcinoma A549.
Cells were typically grown using ˜1 to 2×10^4 cells per well at passage 3 to 15 suspended in 50 μl of the corresponding culture medium in the biosensor microplate, and were cultured at 37° C. under air/5% CO2 for ˜1 day. Except for A431, which was subject to ˜20 hr starvation through continuous culture in the serum-free DMEM, the other cell types were directly assayed without starvation. The confluency for all cells at the time of assays was ˜95% to 100%.
Epic® wavelength interrogation system (Corning Inc., Corning, N.Y.) was used for whole cell sensing. This system consists of a temperature-control unit, an optical detection unit, and an on-board liquid handling unit with robotics. The detection unit is centered on integrated fiber optics, and enables kinetic measures of cellular responses with a time interval of ˜15 sec.
The RWG biosensor is capable of detecting minute changes in local index of refraction near the sensor surface. Since the local index of refraction within a cell is a function of density and its distribution of biomass (e.g., proteins, molecular complexes), the biosensor exploits its evanescent wave to non-invasively detect ligand-induced dynamic mass redistribution in native cells. The evanescent wave extends into the cells and exponentially decays over distance, leading to a characteristic sensing volume of ˜150 nm, implying that any optical response mediated through the receptor activation only represents an average over the portion of the cell that the evanescent wave is sampling. The aggregation of many cellular events downstream the receptor activation determines the kinetics and amplitudes of a ligand-induced DMR.
(§1) For biosensor cellular assays, molecule solutions were made by diluting the stored concentrated solutions with the HBSS (1× Hanks balanced salt solution, plus 20 mM Hepes, pH 7.1), and transferred into a 384 well polypropylene molecule storage plate to prepare a molecule source plate. Both molecule and marker source plates were made separately when a two-step assay was performed. In parallel, the cells were washed twice with the HBSS and maintained in 30 μl of the HBSS to prepare a cell assay plate. Both the cell assay plate and the molecule and marker source plate(s) were then incubated in the hotel of the reader system. After ˜1 hr of incubation the baseline wavelengths of all biosensors in the cell assay microplate were recorded and normalized to zero. Afterwards, a 2 to 10 minute continuous recording was carried out to establish a baseline, and to ensure that the cells reached a steady state. Cellular responses were then triggered by pipetting 10 μl of the marker solutions into the cell assay plate using the on-board liquid handler.
First, a panel of ligands targeting GPCRs, each at 10 μM concentration, was chosen, and examined their actions on the A549 cells using DMR measurements with the Epic® system. The ligand panel included the four P2Y agonists ADP, […], UTP and UDP, the adenosine receptor agonist adenosine, the calcium sensing receptor agonist spermine, the histamine receptor agonist histamine, the adrenergic receptor agonist epinephrine, the free fatty acid receptor agonist elaidic acid, the lipoxin receptor agonist lipoxin A4, the bradykinin receptor agonist bradykinin, the adrenodullin receptor agonist adrenodullin, the PAR1 agonist SFLLR-amide, the angiotensin receptor agonist angiotensin, the neuropeptide Y receptor agonist neuropeptide Y, and the PAR2 agonist SLIGKV-amide.
Next, a second ligand panel was chosen, and examined their actions on the A549 cells using DMR measures with the Epic® system.

[2] = system: quiescent A431 cells; assay: Epic DMR two-step assay, antagonist mode: modulation of marker-induced DMR signals in quiescent A431 cells
Method: as §1
Next, the target specificity and signaling pathway of EGF was probed using a second set of assays.
A first panel of markers was contacted with quiescent A431 cells at concentrations close to each of the marker's EC80 or EC100, and DMR measurements were obtained with and EPIC® system. This panel of markers was selected from a library of markers identified in A431 cells using Epic® cellular assays. This panel included epidermal growth factor (EGF), epinephrine, nicotinic acid, and histamine. Each of these markers leads to a wide array of cell signaling. […] Each DMR signal represents an averaged response of 4 replicates.
A DMR index was generated for four ligand molecules. Quiescent A431 and proliferating A549 cells were separately exposed to the ligand molecules for about 1 hr to generate their primary profiles, followed by stimulation with each marker at a fixed concentration (as mentioned in FIGS. 7 and 8) for another 1 hr or so to generate secondary profiles of the molecule against the panels of markers in both types of cells. Next, one or more specific DMR parameters were chosen as a readout for plotting the DMR index of the molecule. For the pinacidil DMR response in A549, the amplitude of the N-DMR (i.e., the amplitude 30 min after stimulation) was chosen. For the poly(I:C) DMR response in A549, the amplitude of the late DMR (i.e., the amplitude 50 min after stimulation) was chosen. For the PMA response in A549, the late DMR amplitude (i.e., the amplitude 50 min after stimulation) was chosen.

[3] = system: A549 cells; assay: Epic DMR two-step assay, antagonist mode: modulation of marker-induced DMR signals in A549 cells; conditions: molecule 10 μM
Method: as §1
A second panel of markers was contacted with A549 cells at concentrations close to each of the marker's EC80 or EC100, and DMR measurements were obtained with and EPIC® system. This panel included poly(I:C), SLIGKV-amide, pinacidil, PMA, histamine, and forskolin. Each of these markers also leads to a wide array of cell signaling. Using Epic® cellular assays in conjunction with chemical biology and cell biology approach similar to the EGFR DMR mentioned above, we have determined the pathway(s) and network interaction(s) that is accounted for each marker-induced DMR signal in A549 cells. The main observations are summarized below. Poly(I:C) is an agonist for endogenous Toll-like receptor(s) in A549, whose activation leads to IKK pathway and AKT pathway. SLIGKV-amide is an agonist for endogenous protease activated receptor subtype 2 (PAR2) in A549, whose activation leads to Gq-, Gi- and G12/13-mediated signaling. Pinacidil is an opener for endogenous ATP-sensitive potassium (KATP) ion channel in A549, whose activation leads to Rho- and JAK-mediated signaling. PMA is an activator for protein kinase C (PKC), whose activation leads to PKC pathway and degranulation. Histamine is a natural agonist for endogenous histamine receptors (dominantly H1R, and possibly H3R), whose activation leads to dual signaling, possibly through Gq and Gi mediated signaling in A549. Forskolin is an activator for adenylyl cyclases, whose activation leads to cAMP-PKA pathway in A549. […] Each DMR signal represents an averaged response of 4 replicates.
A DMR index was generated for four ligand molecules. Quiescent A431 and proliferating A549 cells were separately exposed to the ligand molecules for about 1 hr to generate their primary profiles, followed by stimulation with each marker at a fixed concentration (as mentioned in FIGS. 7 and 8) for another 1 hr or so to generate secondary profiles of the molecule against the panels of markers in both types of cells. Next, one or more specific DMR parameters were chosen as a readout for plotting the DMR index of the molecule. For the pinacidil DMR response in A549, the amplitude of the N-DMR (i.e., the amplitude 30 min after stimulation) was chosen. For the poly(I:C) DMR response in A549, the amplitude of the late DMR (i.e., the amplitude 50 min after stimulation) was chosen. For the PMA response in A549, the late DMR amplitude (i.e., the amplitude 50 min after stimulation) was chosen. For the SLIGKV-amide DMR response in A549, the P-DMR amplitude (i.e., the amplitude 20 min after stimulation) was chosen. For the forskolin response in A549 cells, the P-DMR amplitude (i.e., the amplitude 50 min after stimulation) was chosen. For the histamine response in A549, both the early DMR amplitude (i.e., amplitude 10 min after stimulation) and the late response (i.e., the amplitude 30 min after stimulation) were chosen. […]

[4] = quiescent A431, ligand 10 μM, about 1 hr pretreatment, 32 nM EGF

angiotensin
DMR signal triggered by the ligand (primary profile) ([1]; A549 cells, ligand 10 μM): robust DMR signals

N#CC(=C(/N)Sc1ccccc1N)/C(C#N)=C(\N)Sc1ccccc1N [U0126]
modulation of the EGF-induced DMR signal [2]: significantly and selectively attenuated the N-DMR and the RP-DMR signals

Nc1ncnc2c1ncn2[C@@H]1O[C@H](COP(=O)(O)OP(=O)(O)OP(=O)(O)O)[C@@H](O)[C@H]1O [AT]
DMR signal triggered by the ligand (primary profile) ([1]; A549 cells, ligand 10 μM): robust DMR signals

O=c1ccn([C@@H]2O[C@H](COP(=O)(O)OP(=O)(O)O)[C@@H](O)[C@H]2O)c(=O)[nH]1 [UDP]
DMR signal triggered by the ligand (primary profile) ([1]; A549 cells, ligand 10 μM): robust DMR signals

CNC[C@H](O)c1ccc(O)c(O)c1 [epinephrine]
DMR signal triggered by the ligand (primary profile) [1]: robust DMR signals

Nc1ncnc2c1ncn2[C@@H]1O[C@H](COP(=O)(O)OP(=O)(O)O)[C@@H](O)[C@H]1O [ADP]
DMR signal triggered by the ligand (primary profile) ([1]; A549 cells, ligand 10 μM): robust DMR signals

O=c1ccn([C@@H]2O[C@H](COP(=O)(O)OP(=O)(O)OP(=O)(O)O)[C@@H](O)[C@H]2O)c(=O)[nH]1 [UTP]
DMR signal triggered by the ligand (primary profile) ([1]; A549 cells, ligand 10 μM): robust DMR signals

SFLLR-amide
DMR signal triggered by the ligand (primary profile) ([1]; A549 cells, ligand 10 μM): robust DMR signals

neuropeptide Y
DMR signal triggered by the ligand (primary profile) ([1]; A549 cells, ligand 10 μM): robust DMR signals

NCCCNCCCCNCCCN [spermine]
DMR signal triggered by the ligand (primary profile) ([1]; A549 cells, ligand 10 μM): robust DMR signals

O=S(=O)(c1cccc2cnccc12)N1CCCNCC1 [HA1077]
modulation of the PMA response [3]: significantly potentiated
modulation of the histamine response [3]: significantly potentiated
modulation of the pinacidil response [3]: almost completely attenuated
modulation of PMA-induced DMR response (late DMR amplitude) ([3]; 8 μM PMA, amplitude 50 min after stimulation): +36%
modulation of SLIGKV-amide-induced DMR response (P-DMR amplitude) ([3]; 8 μM SLIGKV-amide, amplitude 20 min after stimulation): +22%
modulation of histamine-induced DMR response (early P-DMR) ([3]; 10 μM histamine, amplitude 10 min after stimulation): +26%
modulation of histamine-induced DMR response (late P-DMR) ([3]; 10 μM histamine, amplitude 30 min after stimulation): +55%
modulation of forskolin-induced DMR response (P-DMR amplitude) ([3]; 16 μM forskolin, amplitude 50 min after stimulation): +18%
modulation of poly(I:C)-induced DMR response (late DMR amplitude) ([3]; 250 μg/ml poly(I:C), amplitude 50 min after stimulation): +18%
modulation of pinacidil-induced DMR response (N-DMR amplitude) ([3]; ~1 hr pretreatment, 40 μM pinacidil, amplitude 30 min after stimulation): −86% and −95%

CNCCNS(=O)(=O)c1cccc2cnccc12 [H8]
modulation of the epinephrine response ([2]; A431, molecule 10 μM): less effective at attenuating
modulation of the histamine response ([2]; A431, molecule 10 μM): less effective at attenuating

NCCc1c[nH]cn1 [histamine]
DMR signal triggered by the ligand (primary profile) ([1]; A549 cells, ligand 10 μM): robust DMR signals

CC(=O)c1c(O)c(C)c(O)c(Cc2c(O)c3c(c(C(=O)/C=C/c4ccccc4)c2O)OC(C)(C)C=C3)c1O [rottlerin]
modulation of the EGF-induced DMR signal [2, 4]: specifically caused the truncation of the early P-DMR event, as well as part of the early N-DMR event

Nc1ncnc2c1ncn2[C@@H]1O[C@H](CO)[C@@H](O)[C@H]1O [adenosine]
DMR signal triggered by the ligand (primary profile) ([1]; A549 cells, ligand 10 μM): robust DMR signals

poly(I:C)
DMR signal triggered by the ligand (primary profile), second ligand panel ([1]; A549 cells): robust DMR signals

BML-265
modulation of the EGF-induced DMR signal [2, 4]: almost completely blocked

CCCCC[C@H](O)/C=C/C=C\C=C\C=C\[C@@H](O)[C@@H](O)CCCC(=O)O [lipoxin A4]
DMR signal triggered by the ligand (primary profile) ([1]; A549 cells, ligand 10 μM): robust DMR signals

SLIGKV-NH2
DMR signal triggered by the ligand (primary profile) ([1]; A549 cells, ligand 10 μM): robust DMR signals

CC(N/C(=N\C#N)Nc1ccncc1)C(C)(C)C (stereo not shown) [pinacidil]
DMR signal triggered by the ligand (primary profile), second ligand panel ([1]; A549 cells): robust DMR signals

adrenodullin: adrenodullin receptor agonist (YRQSMNNFQGLRSFGCRFGTCTVQKLAHQIYQFTDKDKDNVAPRSKISPQGY; ends and bridges not checked; cysteine pairing not given here; UniProt P35318 95-146, looked up)
DMR signal triggered by the ligand (primary profile) ([1]; A549 cells, ligand 10 μM): robust DMR signals

CCCCCCCC/C=C/CCCCCCCC(=O)O [elaidic acid]
DMR signal triggered by the ligand (primary profile) ([1]; A549 cells, ligand 10 μM): robust DMR signals

COc1cc2ncnc(Nc3cccc(Cl)c3)c2cc1OC [AG1478]
modulation of the EGF-induced DMR signal [2, 4]: almost completely blocked

CCCCCCCCCCCCCC(=O)O[C@@H]1[C@@H](C)[C@@]2(O)[C@@H](C=C(CO)C[C@]3(O)C(=O)C(C)=C[C@@H]23)[C@@H]2C(C)(C)[C@]12OC(C)=O [PMA, Phorbol 12-myristate 13-acetate]
DMR signal triggered by the ligand (primary profile), second ligand panel ([1]; A549 cells): robust DMR signals
